Data as given in patent US20020061924A1, “Agent containing tocotrienol for drug” (priority 2000, published 2002).

Experiments:
[1] = Antioxidant action on monolayer liposome (iron-ascorbic acid, AAPH, lipoxigenase systems); settings: tocotrienol compared with tocopherol
Experimental: (§1) Strength of antioxidant action of tocotrienol and tocopherol on monolayer liposome and erythrocyte membrane was evaluated by using iron-ascorbic acid, 2, 2′-azobis (2-amidinopropane).2HCl (AAPH) which is a water-soluble radical generator and lipoxigenase reaction system.

[2] = test system: human erythrocyte membrane; experiment: Reactivity with AAPH radicals on human erythrocyte membrane (residual rate); type: cell-based; settings: for Residual Rate (%) 1 hr. / Residual Rate (%) 2 hrs. / Residual Rate (%) 3 hrs.: 10% erythrocyte suspension, 75 mM AAPH, 37° C.; for Residual Rate (%) 1 hr.: after 1 hour; for Residual Rate (%) 2 hrs.: after 2 hours; for Residual Rate (%) 3 hrs.: after 3 hours
Experimental: Human erythrocytes to be tested were prepared from blood of a healthy person by treating the blood according the method disclosed in Lipids, vol. 33 (6), p589-595 (1998). Actually, blood drawn from a healthy person was put in a test tube containing EDTA-2Na (1 mg/ml), and certrifuged at 1000×g at 4° C. for 20 minutes to be separated into erythrocytes and plasma. The erythrocytes were washed three times with 5 parts by volume of phosphate-buffered saline (PBS), and centrifuged exactly at 1000×g for 20 minutes to obtain a definite volume of packed erythrocytes.
The erythrocytes were subjected to hemolysis test according to the method of Miki et al., Arch. Biochem. Biophys. 258, p373-380. 0.5 ml of the human erythrocytes were suspended into 4 parts by volume of PBS, and a-tocotrienol ethanol solution was added thereto wherein the final ethanol concentration was made 0.5% (v/v) or less. After incubating the mixture at 37° C. for 30 minutes, the erythrocytes were washed. 10% suspension of the erythrocytes was incubated again. To the suspension, 75 mM AAPH-PBS solution was added, and oxidation was carried out at 37° C. in a dark place with stirring. The state of erythrocyte membrane, which was destroyed by radicals to induce hemolysis, was observed.
Similarly, the human erythrocytes were incubated with α-tocopherol for 30 minutes, washed, and 10% suspension of the erythrocytes was incubated again. To the suspension, 75 mM AAPH was added, and the state of erythrocyte membrane, which was destroyed by radicals to induce hemolysis, was observed.
Reactivity of α-tocotrienol and α-tocopherol with radicals on human erythrocyte membrane was examined, and residual rate of α-tocotrienol and α-tocopherol in solution was measured after 1, 2 and 3 hours.

Human erythrocytes = experiment: Deformability of erythrocytes by Micro-Channel Array Flow Analyzer (MC-FAN); type: cell-based; settings: for Passage Time: Table 1, control 54 ± 3; for Ratio to Control: passage time relative to control (1.00)
Experimental: Deformability of erythrocytes was measured using a Micro-Channel Array Flow Analyzer (MC-FAN) illustrated in FIG. 3 which measures time for passing total volume of an erythrocyte (8-10 μm) through a pore (6 μm) of a microchip.
Human erythrocytes were incubated with 43.3 μM α-tocotrienol for 30 minutes to incorporate the α-tocotrienol into the erythrocytes, and deformability of the erythrocytes was measured by the MC-FAN. As a control sample, human erythrocytes without α-tocotrienol were prepared, and the deformability was also measured.
In comparison, human erythrocytes were incubated with 40 μM α-tocopherol (vitamin E, Tokyo Kasei Kogyo) for 30 minutes to incorporate the α-tocopherol into the erythrocytes, and deformability of the erythrocytes was measured by the MC-FAN. As a result, passage time of the erythrocyte with a -tocopherol was 36 sec/ 100 μl RBC.

erythrocyte membrane = experiment: Antioxidant action on erythrocyte membrane (iron-ascorbic acid, AAPH, lipoxigenase systems); type: cell-based; settings: tocotrienol compared with tocopherol
Experimental: as §1

[3] = test system: hemolysis by dialuric acid; settings: amount relative to comparator; cited from earlier work

Row | Compound | strength of antioxidant action on monolayer liposome [1] | incorporation (reaction rate with radicals) relative to tocopherol ([2]; from residual rates on human erythrocyte membrane) | ability of improving the deformability of erythrocytes (Human erythrocytes; comparison of tocotrienol with tocopherol) | strength of antioxidant action on erythrocyte membrane (erythrocyte membrane) | inhibition of hemolysis by dialuric acid [3] | Residual Rate (%) 1 hr. [2] [%] | Residual Rate (%) 2 hrs. [2] [%] | Residual Rate (%) 3 hrs. [2] [%] | Passage Time (Human erythrocytes) [sec/100 μ1 RBC] | passage time of the erythrocyte (Human erythrocytes; incubated with 43.3 μM for 30 minutes, without compound 54) | Ratio to Control (Human erythrocytes) | passage time of the erythrocyte (Human erythrocytes; incubated with 40 μM for 30 minutes) [sec/ 100 μl RBC]
1 | tocopherol [reference compound] | difference in the strength of antioxidant action on monolayer liposome was not found |  |  |  |  |  |  |  |  |  |  | 
2 | tocotrienol | difference in the strength of antioxidant action on monolayer liposome was not found | about three to four times as much as that of tocopherol | more excellent than tocopherol | much greater than that of tocopherol |  |  |  |  |  |  |  | 
3 | CC(C)=CCC/C(C)=C/CC/C(C)=C/CC[C@]1(C)CCc2c(C)c(O)c(C)c(C)c2O1 [α-tocotrienol] |  |  |  |  | inhibit hemolysis by dialuric acid even in an amount of one third | 12 ± 2 | 7 ± 1 | 4 ± 1 | 26 ± 5 | 26 sec/100 μl erythrocyte (RBC) | 0.47 | 
4 | Cc1c(C)c2c(c(C)c1O)CC[C@@](C)(CCC[C@H](C)CCC[C@H](C)CCCC(C)C)O2 [α-tocopherol, reference compound] |  |  |  |  |  | 41 ± 3 | 25 ± 4 | 19 ± 3 | 34 ± 5 |  | 0.63 | 36
